In patent publication US8697692B2, “Pyrrolo [3,2-c] pyridine-4-one 2-indolinone protein kinase inhibitors” (Shanghai Hengrui Pharmaceutical Co., Ltd., priority 2006, dated 2014):
Read-outs that look alike come from different tables or passages of the source.

Tests used:
[1] = system: A431 cell; assay: Cell Proliferation Inhibition EGFR Assay (SRB method); assay type: cell-based, homo sapient; conditions: Homo sapiens, read-out: IC50 (A431)
Procedure, shortened: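 A431 cells grown to ~85% confluence, then exposed 72 hours at 37° C to 6 to 7 serial concentrations of compound in DMEM/F12 + 10% FBS, final DMSO ≤0.5%. Growth measured by TCA fixation and sulforhodamine B staining; IC50 calculated from inhibition rates.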

[2] = molecular target: T1, EGFR kinase (Homo sapiens, UniProt P00533); assay: EGFR Kinase Assay; assay type: biochemical; conditions: 20 μM ATP, 25° C. 45 minutes
T1 construct: purchased Cell signaling technology #7908
T1 sequence (P00533 25-1210): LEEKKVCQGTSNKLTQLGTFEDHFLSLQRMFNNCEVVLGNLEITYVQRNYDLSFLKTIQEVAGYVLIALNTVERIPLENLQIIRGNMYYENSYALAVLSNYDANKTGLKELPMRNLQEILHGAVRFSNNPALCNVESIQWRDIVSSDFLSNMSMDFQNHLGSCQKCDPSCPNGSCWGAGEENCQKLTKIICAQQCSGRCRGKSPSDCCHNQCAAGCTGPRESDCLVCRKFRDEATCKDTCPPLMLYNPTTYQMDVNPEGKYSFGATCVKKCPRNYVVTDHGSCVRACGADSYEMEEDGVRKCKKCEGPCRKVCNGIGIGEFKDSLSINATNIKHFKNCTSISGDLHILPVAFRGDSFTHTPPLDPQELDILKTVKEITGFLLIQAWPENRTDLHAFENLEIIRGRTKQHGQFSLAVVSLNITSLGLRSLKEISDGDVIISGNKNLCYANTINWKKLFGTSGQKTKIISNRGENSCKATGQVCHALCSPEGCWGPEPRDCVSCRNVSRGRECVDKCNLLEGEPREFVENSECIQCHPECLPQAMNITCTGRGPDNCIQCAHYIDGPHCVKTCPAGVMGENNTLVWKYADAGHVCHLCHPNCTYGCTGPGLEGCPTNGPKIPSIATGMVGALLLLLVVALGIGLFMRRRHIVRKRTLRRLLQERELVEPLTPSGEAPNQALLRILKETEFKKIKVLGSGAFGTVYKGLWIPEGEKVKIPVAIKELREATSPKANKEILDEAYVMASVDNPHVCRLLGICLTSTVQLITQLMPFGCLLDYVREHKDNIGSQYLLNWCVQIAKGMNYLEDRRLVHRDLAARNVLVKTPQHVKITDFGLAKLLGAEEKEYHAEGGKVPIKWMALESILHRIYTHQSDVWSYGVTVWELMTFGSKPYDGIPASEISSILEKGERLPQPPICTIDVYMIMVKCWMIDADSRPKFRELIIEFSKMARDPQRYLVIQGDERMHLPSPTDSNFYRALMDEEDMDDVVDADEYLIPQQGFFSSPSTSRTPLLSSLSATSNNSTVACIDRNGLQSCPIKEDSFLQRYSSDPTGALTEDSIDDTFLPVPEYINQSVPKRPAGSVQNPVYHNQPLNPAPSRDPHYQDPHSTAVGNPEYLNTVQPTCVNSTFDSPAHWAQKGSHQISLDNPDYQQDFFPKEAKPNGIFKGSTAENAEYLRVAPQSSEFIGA
Description: EGFR kinase activity in vitro was measured as described below:
a. Wash Buffer (PBS-T Buffer): 1×PBS (137 mM NaCl, 2.7 mM KCl, 4.3 mM Na2HPO4, 1.4 mM KH2PO4, adjust the pH to 7.2) and 0.05% Tween-20.
(§1) b. 1% Bovine Serum Albumin (BSA, Calbiochem #136593) in PBS-T.
c. Stop Buffer: 50 mM EDTA, pH 8.0
d. DELFIA® Europium-labeled Anti-mouse IgG (PerkinElmer Life Sciences #AD0124)
e. DELFIA® Enhancement Solution (PerkinElmer Life Sciences #1244-105)
f. DELFIA® Streptavidin coated, 96-well, yellow plate (PerkinElmer Life Sciences #AAAND-0005)
g. EGFR kinase (supplied in 50 mM Tris-HCl (pH 8.0), 100 mM NaCl, 5 mM DTT, 15 mM reduced glutathione and 20% glycerol. Cell signaling technology #7908).
(§2) h. 10 mM ATP solution (Cell signaling technology #9804).
i. PTP1B (Tyr66) Biotinylated Peptide (Cell signaling technology #1325).
(§3) j. Phospho-Tyrosine Mouse mAb (P-Tyr-100) (Cell signaling technology #9411).
(§4) k. HTScan™ Tyrosine Kinase Buffer (4×)
(§5) (Cell signaling technology #9805).
(§6) l. 1.25 M DTT (1000×) (Cell signaling technology).
(§7) The following protocol was used:
1. Dilute test compound with DMSO to the desired final assay concentration.
2. Dilute 6 μM substrate peptide (Tyr66) 1:1 with dH2O, add 15 μl to every assay.
3. Immediately transfer EGFR enzyme from −80° C. to ice. Allow enzyme to thaw on ice.
4. Take 3 μg EGFR enzyme to the enzyme tube.
(§8) 5. Add 10 μl of DTT (1.25 M) to 2.5 ml of 4×HTScan™ Tyrosine Kinase Buffer (240 mM HEPES pH 7.5, 20 mM MgCl2, 20 mM MnCl2, 12 μM Na3VO4) to make DTT/Kinase buffer.
(§9) 6. Transfer 0.75 ml of DTT/Kinase buffer to each enzyme tube to make 4× reaction cocktail. Add 7.5 μl 4× reaction cocktail to every assay.
7. Add 4 μl ATP (10 mM) to 496 μl dH2O, take 7.5 μl for every assay.
Final Assay Conditions for a 30 μl Reaction
(§10) Incubate reaction tube at 25° C. for 45 minutes. 9. Add 30 μl/assay stop buffer (50 mM EDTA, pH 8.0) to stop the reaction. 10. Transfer 25 μl of each reaction and 75 μl dH2O/well to a 96-well streptavidin coated plate and incubate, with shaking at room temperature for 60 minutes. 11. Wash three times with 200 μl/well PBS-T buffer. Pat plate on paper towel to remove excess liquid. 12. Dilute primary antibody, Phospho-Tyrosine mAb (P-Tyr-100), 1:1000 in PBS-T buffer with 1% BSA. Add 100 μl diluted primary antibody to each well. 13. Incubate, with shaking at room temperature for 60 minutes. 14. Wash as described above in step 11. 15. Dilute Europium labeled anti-mouse IgG 1:500 in PBS-T buffer with 1% BSA. Add 100 μl diluted antibody to each well. 16. Incubate, with shaking at room temperature for 30 minutes. 17. Wash five times with 200 μl/well PBS-T buffer. Pat plate on paper towel to remove excess liquid. 18. Add 100 μl/well DELFIA® Enhancement Solution. 19. Incubate, with shaking at room temperature for 5 minutes. 20. Detect 615 nm fluorescence emission with appropriate Time-Resolved Plate Reader.
(§11) Calculate the inhibition rate: IR (%)=100−100*(X−B)/(N−B)
(§12) X=the fluorescence value of the well contained test compound
(§13) The IC50 value can be derived from the IRs of compounds at different concentration gradients.

[3] = system: HUVEC cell; assay: Cell Proliferation Inhibition VEGF-R2 Assay (SRB method); assay type: cell-based, homo sapient; conditions: Homo sapiens; HUVEC cells, 72 hours exposure, Sulforhodamine B; read-out: IC50 (VEGFR/HUVEC)
Text: The following in vitro assay may be used to determine the level of activity and effect of different compounds of the present invention on the proliferation inhibition (cell toxic) of endothelium growth factor receptor (VEGFR) high expressing homo […] cancer cell-HUVEC cell. The cellular assay described here measure the compounds of their anti-angiogenesis and proliferation inhibition activity and effect through […] on the cancer cells in vitro. The effect and activity is represented by the IC50 value that kills the cancer cell. […] The homo […] highly express […] are chosen and seeded to 96-well cell culture plate at a suitable concentration (exp 5000 cells/ml medium). The cells then are cultured in carbon dioxide (CO2) incubator till when they confluence to about 85%. Then, the cell culture medium is replaced by fresh one with tested compounds added in it at serial concentrations (general 6 to 7 concentrations). Then the cells are put back to the culture and cultured for continuous 72 hours. 72 hours later, the cell exposed to compounds and control cell are assayed for their proliferation using Sulforhodamine B (SRB) method. […] Dimethyl sulfoxide (Sinophma chemical reagent company, catalog No. T20050806) • b. HUVEC cells (Purchased from Institute of biochemistry and cell biology) • c. […] Acetic Acid (Sinophma chemical reagent company, Catalog No. T20060508) • l. Trichloroacetic Acid (Sinophma chemical reagent company, Catalog No. T20060305) • m. […] Class II A/B3 Biological safety cabinet (ThermoForma Catalog No. HB0053-03) • o. […] Centrifuge (Fisher Scientific Marathon 8 k, Catalog No. 0027-02) • q. Novastar Plate reader (BMG Labtech, Catalog No. 700-0081) • r. […] Growing seeded 96-well plates at 37° C., 5% CO2, till 85% confluence. • 4. Prepare compounds stock solution, using DMSO solve candidate compounds to a concentration of 20 mM. […] Use cell culture medium (in this case, DMEM/F12+10% FBS) to dilute the compounds solution prepared above. Each DMSO serial concentration compound solution is diluted by 20 times with culture medium by adding 5 μl DMSO compound solution to 95 μl culture medium, then mix well by vortex. […] After HUVEC cell has attached to the dish bottom and confluence about 85%, change the culture medium with fresh DMEM/F12 plus 10% FBS. Each well added 180 μl medium, then add 20 μl medium solution of tested compounds prepared at step 5 to each well. For control group cell, add 20 μl culture medium containing 0.5% pure DMSO. […] Each 96-well plate, we can test 3 compounds with a control cell group. • 7. Put the culture plates back to incubator, culture for 72 hours at 37° C., 5% CO2. • 8. 72 hours later, remove cultures from incubator into sterile work area. • 9. Prepare fixative (50% Trichloroacetic Acid-TCA) by adding reagent grade water to the TCA, fix the cells by gently layering 50 μl of cold TCA solution on top of the growth medium. • 10. Incubate plates for 1 hour at 4° C. and then rinse with water several times to remove TCA, serum proteins, etc. Plates are air dried and stored until use. Bland background optical density is measured in wells incubated with growth medium without cells. • 11. Use 10% acetic acid solution to prepare 0.4% Sulforhodamine B solution. Add 50 μl sulforhodamine B solution to each well of 96-well plates. • 12. Allow cells to stain for 30 minutes. • 13. Prepared the wash solution of […] acetic acid. At the end of the staining period, the stain is removed and the cells rinsed quickly with 1% acetic acid. Repeat until unincorporated dye is removed. Keep wash times to a minimum to reduce desorption of protein-bound dye. After being rinsed, the cultures are air dried until no moisture is visible. • 14. The incorporated dye is then solubilized in a volume of Sulforhodamine B assay Solubilization solution (10 mM Tris) equal to the original volume of culture medium. Allow cultures to stand for 5 minutes at room temperature.

[4] = molecular target: T2, HER-2/ErbB2 kinase (Homo sapiens, UniProt P04626); assay: HER-2 Kinase Assay (ELISA); assay type: biochemical; conditions: 20 μM ATP, 25° C. 60 minutes
T2 construct: purchased Invitrogen corporation #PV3366
T2 sequence (P04626 23-1255): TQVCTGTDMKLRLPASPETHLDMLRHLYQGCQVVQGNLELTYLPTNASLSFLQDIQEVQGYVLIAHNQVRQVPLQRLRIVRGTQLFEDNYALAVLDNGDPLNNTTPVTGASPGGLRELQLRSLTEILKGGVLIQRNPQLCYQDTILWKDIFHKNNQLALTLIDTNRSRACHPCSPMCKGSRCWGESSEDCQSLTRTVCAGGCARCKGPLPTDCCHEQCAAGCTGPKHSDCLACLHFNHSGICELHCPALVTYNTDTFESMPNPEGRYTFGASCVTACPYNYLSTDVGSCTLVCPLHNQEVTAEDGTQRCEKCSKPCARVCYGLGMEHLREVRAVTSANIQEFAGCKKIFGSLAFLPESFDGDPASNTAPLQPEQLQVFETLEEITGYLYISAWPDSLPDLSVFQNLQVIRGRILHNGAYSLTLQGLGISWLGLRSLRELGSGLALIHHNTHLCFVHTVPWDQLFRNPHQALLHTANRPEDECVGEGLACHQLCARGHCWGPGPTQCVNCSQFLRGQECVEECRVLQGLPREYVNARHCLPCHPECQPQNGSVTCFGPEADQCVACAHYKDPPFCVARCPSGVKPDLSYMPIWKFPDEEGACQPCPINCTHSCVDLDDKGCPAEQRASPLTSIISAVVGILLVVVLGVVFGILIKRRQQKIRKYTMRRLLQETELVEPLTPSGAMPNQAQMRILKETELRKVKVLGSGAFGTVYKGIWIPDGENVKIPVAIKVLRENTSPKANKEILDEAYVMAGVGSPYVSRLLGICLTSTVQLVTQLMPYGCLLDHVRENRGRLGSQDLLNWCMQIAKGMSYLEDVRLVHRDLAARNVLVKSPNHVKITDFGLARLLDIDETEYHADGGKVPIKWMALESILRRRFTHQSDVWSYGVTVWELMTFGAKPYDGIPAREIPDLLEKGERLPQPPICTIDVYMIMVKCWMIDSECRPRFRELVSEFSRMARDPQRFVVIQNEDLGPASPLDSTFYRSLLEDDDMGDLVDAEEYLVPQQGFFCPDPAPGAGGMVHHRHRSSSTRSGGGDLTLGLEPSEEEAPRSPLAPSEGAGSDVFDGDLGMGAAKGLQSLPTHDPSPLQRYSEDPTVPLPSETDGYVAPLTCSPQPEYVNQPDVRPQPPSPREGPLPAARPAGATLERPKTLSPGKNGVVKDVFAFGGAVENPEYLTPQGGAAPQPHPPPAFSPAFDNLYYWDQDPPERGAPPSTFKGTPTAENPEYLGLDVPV
Description: An enzyme linked immunosorbent assays (ELISA) was conducted to measure the kinase activity of HER-2 in vitro.
a. Wash Buffer (PBS-T Buffer): 1×PBS (137 mM NaCl; 2.7 mM KCl, 4.3 mM Na2HPO4, 1.4 mM KH2PO4, adjust the pH to 7.2) and 0.05% Tween-20.
as §1
c. Stop Buffer: 50 mM EDTA, pH 8.0.
d. DELFIA® Europium-labeled Anti-mouse IgG (PerkinElmer Life Sciences #AD0124).
e. DELFIA® Enhancement Solution (PerkinElmer Life Sciences #1244-105).
f. DELFIA® Streptavidin coated, 96-well, yellow plate (PerkinElmer Life Sciences #AAAND-0005).
g. HER-2/ErbB2 kinase (Invitrogen corporation #PV3366).
as §2
i. FLT3 (Tyr589) Biotinylated Peptide (Cell signaling technology #1305).
as §3, §4, §5, §6, §7
1. Dilute test compound with DMSO to the desired final assay concentration. Add 1 μl test compound for every assay, to the negative control.
2. Dilute 6 μM substrate peptide (Tyr589) 1:1 with dH2O, add 15 μl to every assay.
3. Immediately transfer HER-2 enzyme from −80° C. to ice. Allow enzyme to thaw on ice.
4. Take 4.5 μg HER-2 enzyme to the enzyme tube.
as §8, §9
7. Add 4 μl ATP (10 mM) to 496 μl dH2O, take 7.5 μl for every assay. Final Assay Conditions for a 30 μl Reaction
as §10, with “60” for “45”
as §11, §12, §13

[5] = A-431, A431 cells, 72 hours exposure, Sulforhodamine B

What does the source list for `CCN(CC)CCN1CCc2[nH]c(/C=C3\C(=O)Nc4ccc(F)cc43)c(C)c2C1=O` [Example 1, 5-(2-Diethylamino-ethyl)-2-(5-fluoro-2-oxo-1,2-dihydro-indol-3-ylidenemethyl)-3-methyl-1,5,6,7-tetrahydro-pyrrolo[3,2-c]pyridin-4-one]?
IC50 ([1]; A-431, 72 h): 1090 nM; IC50 [2]: 280 nM

Which IC50 ([1]; A-431, 72 h) does the source give for `CCN(CC)CCN1CCc2[nH]c(/C=C3\C(=O)Nc4ccc(Cl)cc43)c(C)c2C1=O` [Example 2, 2-(5-Chloro-2-oxo-1,2-dihydro-indol-3-ylidenemethyl)-5-(2-diethylamino-ethyl)-3-methyl-1,5,6,7-tetrahydro-pyrrolo[3,2-c]pyridin-4-one] here?
The IC50 was 1040 nM.

What about the IC50 [2] of the same molecule?
The IC50 was 290 nM.

Which results are given for `CCN(CC)CCN1CCc2[nH]c(/C=C3\C(=O)Nc4ccc(Br)cc43)c(C)c2C1=O` [Example 3, 2-(5-Bromo-2-oxo-1,2-dihydro-indol-3-ylidenemethyl)-5-(2-diethylamino-ethyl)-3-methyl-1,5,6,7-tetrahydro-pyrrolo[3,2-c]pyridin-4-one]?
IC50 ([1]; A-431, 72 h): 1260 nM; IC50 [2]: 490 nM

What does the source list for `Cc1c(/C=C2\C(=O)Nc3ccc(F)cc32)[nH]c2c1C(=O)N(CCN1CCCC1)CC2` [Example 13, 2-(5-Fluoro-2-oxo-1,2-dihydro-indol-3-ylidenemethyl)-3-methyl-5-(2-pyrrolidin-1-yl-ethyl)-1,5,6,7-tetrahydro-pyrrolo[3,2-c]pyridin-4-one]?
IC50 [1, 5]: 1310 nM; IC50 [2]: 190 nM

`O=C1Nc2ccc(Br)cc2/C1=C/c1[nH]c2c(c1-c1ccccc1)C(=O)NCC2` [Example 41, 2-(5-Bromo-2-oxo-1,2-dihydro-indol-3-ylidenemethyl)-3-phenyl-1,5,6,7-tetrahydro-pyrrolo[3,2-c]pyridin-4-one] was tested. Which IC50 [3] did it give?
The IC50 was 220 nM.

And the IC50 [2]?
The IC50 was 6010 nM.

For `Cc1c(/C=C2\C(=O)Nc3cccc(Br)c32)[nH]c2c1C(=O)N(CCN1CCOCC1)CC2` [Example 49, 2-(4-Bromo-2-oxo-1,2-dihydro-indol-3-ylidenemethyl)-3-methyl-5-(2-morpholin-4-yl-ethyl)-1,5,6,7-tetrahydro-pyrrolo[3,2-c]pyridin-4-one], which IC50 [4] is on record?
The IC50 was 36100 nM.

What does the source list for `Cc1c(/C=C2\C(=O)Nc3cccc(-c4cccc(F)c4)c32)[nH]c2c1C(=O)N(CCN1CCCCC1)CC2` [Example 64, 2-[4-(3-Fluoro-phenyl)-2-oxo-1,2-dihydro-indol-3-ylidenemethyl]-3-methyl-5-(2-piperidin-1-yl-ethyl)-1,5,6,7-tetrahydro-pyrrolo[3,2-c]pyridin-4-one]?
IC50 [1, 5]: 180 nM; IC50 [4]: 680 nM
